In article PMC3222680 (PLoS ONE, 2011):

Legend:
Type in all cases: cell-based
[1] = target: T1, αWT β-αK24′A GlyR (Homo sapiens, UniProt P23415+P48167, A275I/A296P/F268Y/G272Q/K304A/L286I/M270L/M271I/P292M/P300G/S295A/T277S/V266M/V273M/V282I)
T1 construct: The α R218-Q219 and β R242-Q243 are also the joining sites for chimeras constructed between the ECD and TMD; expressed in transfected cells; host or cells: HEK293 (ATCC)
T1 sequence (P23415 29-449 isoform P23415-2): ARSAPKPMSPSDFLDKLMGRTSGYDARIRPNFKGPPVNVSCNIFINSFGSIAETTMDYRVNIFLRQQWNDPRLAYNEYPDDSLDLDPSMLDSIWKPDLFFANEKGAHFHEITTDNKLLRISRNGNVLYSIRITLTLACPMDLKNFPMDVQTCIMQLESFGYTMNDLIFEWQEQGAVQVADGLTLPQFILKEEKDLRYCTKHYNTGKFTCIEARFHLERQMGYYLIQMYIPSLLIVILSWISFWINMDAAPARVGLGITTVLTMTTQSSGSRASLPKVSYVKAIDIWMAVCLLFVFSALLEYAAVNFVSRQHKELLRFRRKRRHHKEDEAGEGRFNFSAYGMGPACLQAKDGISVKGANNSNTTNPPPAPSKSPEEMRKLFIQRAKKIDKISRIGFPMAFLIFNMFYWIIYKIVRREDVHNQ
T1 sequence (P48167+P23415 with tags, fused parts or gaps P48167:V266M/P48167:F268Y/P48167:M270L/P48167:M271I/P48167:G272Q/P48167:V273M/P48167:A275I/P48167:T277S/P48167:V282I/P48167:L286I/P48167:P292M/P48167:S295A/P48167:A296P/P48167:P300G/P23415:K304A): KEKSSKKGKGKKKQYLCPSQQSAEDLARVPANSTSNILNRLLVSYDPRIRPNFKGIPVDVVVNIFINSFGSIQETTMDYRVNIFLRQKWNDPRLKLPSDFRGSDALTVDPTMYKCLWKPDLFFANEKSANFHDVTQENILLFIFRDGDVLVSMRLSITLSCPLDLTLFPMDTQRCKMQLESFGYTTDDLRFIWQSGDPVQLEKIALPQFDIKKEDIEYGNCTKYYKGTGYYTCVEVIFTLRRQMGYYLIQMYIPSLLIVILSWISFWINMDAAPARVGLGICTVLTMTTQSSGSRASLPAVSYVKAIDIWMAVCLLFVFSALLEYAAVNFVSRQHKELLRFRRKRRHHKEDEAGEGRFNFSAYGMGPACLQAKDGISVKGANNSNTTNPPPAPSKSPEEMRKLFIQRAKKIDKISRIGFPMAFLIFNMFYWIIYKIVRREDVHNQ
Procedure: (§1) The human GlyR α1 and β subunit cDNAs were subcloned into the pcDNA3.1zeo+ (Invitrogen) or pGEMHE [44] plasmid vectors for expression in HEK293 cells or Xenopus oocytes, respectively. Site-directed mutagenesis and chimera construction were performed using the QuickChange (Stratagene, La Jolla, CA, USA) mutagenesis and multiple-template-based sequential PCR protocols, respectively.
(§2) For the β-α chimeras used for determining the effect of hyperekplexia-mimicking mutations on α1 β GlyR channel function, the Thr at the M2 6′ position was replaced by a Cys. […] Through such a modification, picrotoxin resistance was used to distinguish the heteromeric α1 β-α GlyR from the homomeric α1 GlyR when the α1 and β-α subunits were co-expressed.
(§3) The effects of the hyperekplexia-mimicking mutations, K24′A, V25′A and Y27′A, were examined on GlyRs expressed in HEK293 cells (ATCC). Details of the HEK293 cell culture, GlyR expression and electrophysiological recording of the HEK293 cells are described elsewhere. Briefly, HEK293 cells were maintained in DMEM supplemented with 10% fetal bovine serum. Cells were transfected using a calcium phosphate precipitation protocol. When co-transfecting the α1 together with the β or any other chimera subunits, their respective cDNAs were combined in a ratio of 1∶10. In addition, the pEGFP-N1 (Clontech) was co-transfected to facilitate identifying the transfected cells. […] Cells were treated with external Ringer's solution and internal CsCl solution [30]. Cells were voltage-clamped at −40 mV. When the heteromeric GlyRs were expressed, the picrotoxin sensitivity was tested to confirm that the majority of receptors are heteromers, [30].
(§4) Results are expressed as mean±standard error of the mean of three or more independent experiments. […] Statistical significance was determined using the Student's t-test.

[2] = target: T2, αWT β-αWT GlyR (Homo sapiens, UniProt P23415+P48167, A275I/A296P/F268Y/G272Q/L286I/M270L/M271I/P292M/P300G/S295A/T277S/V266M/V273M/V282I)
T2 construct: The α R218-Q219 and β R242-Q243 are also the joining sites for chimeras constructed between the ECD and TMD; expressed in transfected cells; host or cells: HEK293 (ATCC)
T2 sequence (P23415 29-449 isoform P23415-2): T1 sequence (P23415 29-449 isoform P23415-2)
T2 sequence (P48167+P23415 with tags, fused parts or gaps P48167:V266M/P48167:F268Y/P48167:M270L/P48167:M271I/P48167:G272Q/P48167:V273M/P48167:A275I/P48167:T277S/P48167:V282I/P48167:L286I/P48167:P292M/P48167:S295A/P48167:A296P/P48167:P300G): T1 sequence (P48167+P23415 with tags, fused parts or gaps P48167:V266M/P48167:F268Y/P48167:M270L/P48167:M271I/P48167:G272Q/P48167:V273M/P48167:A275I/P48167:T277S/P48167:V282I/P48167:L286I/P48167:P292M/P48167:S295A/P48167:A296P/P48167:P300G/P23415:K304A) with A300K
Procedure: as §1, §2, §3, §4

[3] = target: T3, αWT β-αY27′A GlyR (Homo sapiens, UniProt P23415+P48167, A275I/A296P/F268Y/G272Q/L286I/M270L/M271I/P292M/P300G/S295A/T277S/V266M/V273M/V282I/Y307A)
T3 construct: The α R218-Q219 and β R242-Q243 are also the joining sites for chimeras constructed between the ECD and TMD; expressed in transfected cells; host or cells: HEK293 cells (ATCC), pcDNA3.1zeo+
T3 sequence (P23415 29-449 isoform P23415-2): T1 sequence (P23415 29-449 isoform P23415-2)
T3 sequence (P48167+P23415 with tags, fused parts or gaps P48167:V266M/P48167:F268Y/P48167:M270L/P48167:M271I/P48167:G272Q/P48167:V273M/P48167:A275I/P48167:T277S/P48167:V282I/P48167:L286I/P48167:P292M/P48167:S295A/P48167:A296P/P48167:P300G/P23415:Y307A): T1 sequence (P48167+P23415 with tags, fused parts or gaps P48167:V266M/P48167:F268Y/P48167:M270L/P48167:M271I/P48167:G272Q/P48167:V273M/P48167:A275I/P48167:T277S/P48167:V282I/P48167:L286I/P48167:P292M/P48167:S295A/P48167:A296P/P48167:P300G/P23415:K304A) with A300K, Y303A
Procedure: as §1, §2, §3, §4

[4] = αWT β-αK24′A, HEK293, with glycine at EC50 of α1 homomer
[5] = αWT β-αWT, HEK293, with glycine at EC50 of α1 homomer
[6] = αWT β-αY27′A, HEK293, with glycine at EC50 of α1 homomer

Compound	Imax [1] [nA]	nH [1]	Imax [2] [nA]	nH [2]	Imax [3] [nA]	nH [3]	10uM PTX inhibition (%) [1, 4] [%]	100uM PTX inhibition (%) [1, 4] [%]	10uM PTX inhibition (%) [2, 5] [%]	100uM PTX inhibition (%) [2, 5] [%]	10uM PTX inhibition (%) [3, 6] [%]	100uM PTX inhibition (%) [3, 6] [%]
NCC(=O)O [glycine]	5.9±1.7	1.5±0.3	8.0±2.3	2.4±0.4	6.5±1.6	2.1±0.6						
picrotoxin [PTX]							12.0±3.0	31±3	8.5±1.9	26±2	22±7	48±4
